For assay [1], the system named is HeLa cells. Description: Analysis of mitosis, HeLa centrin-GFP H2B-RFP. The assay is classed as cell-based, human. The settings on record: centrosome-less HeLa cells. As to the method: (§1) Analysis of mitosis and daughter cell fate. […] Cells were seeded into 96-well cycloolefin plates at 5000 cells/well, 8-10 hours before imaging. Movies were acquired on the CV1000 with a 40×0.95 NA U-PlanApo objective. The imaging chamber was maintained at 37° C. and 5% CO2. Image acquisition and data analysis were performed using CellVoyager software. 20 fields/well were imaged. For HeLa and NIH/3T3 cells, 5×2 μm z-sections in the GFP (25% power, 125 ms, 30% gain) and RFP (25% power, 100 ms, 30% gain) channels were captured in each field, at 5-minute intervals for 24 hours. For RPE1 cells, 5×2 μm z-sections in the GFP (20% power, 100 ms, 30% gain) and RFP (25% power, 100 ms, 30% gain) channels were captured in each field, at 5-minute intervals for 8 hours. To track RPE1 daughter cell fate, imaging was then switched to 3×4 μm z-sections in the RFP channel only, at 10-minute intervals for 48 hours. Mitosis was measured from nuclear envelope breakdown to anaphase onset (or arrest). Results represent combined measurements of 100 mother cells per condition from 2-4 independent experiments.

A further assay addresses ROS/ROS1 (Homo sapiens, UniProt P08922). The assay can be described thus: Radiometric kinase assay, off-target ROS/ROS1. The assay is classed as biochemical. The settings on record: off-target from DiscoveRx kinome profiling. The method, then:
(§2) Aurora B and other radiometric kinase assays were performed by Reaction Biology (Malvern, Pa.). Kinome profiling of centrinone and centrinone-B was performed by DiscoveRx (San Diego, Calif.).

The subject of assay [2] is NIH/3T3 cells. The assay can be described thus: Analysis of mitosis, NIH/3T3 centrin-GFP H2B-RFP. The assay is classed as cell-based, mouse. The following applies: centrosome-less NIH/3T3 cells. As to the method: as §1
For another assay, the system named is centrosomes in cells. The assay can be described thus: Cellular centrosome depletion (cell line not stated). The following applies: cellular activity, FIG. 1A. The assay is classed as cell-based. The method, then: Centriole depletion assay for compound screening. 1,500 NIH/3T3 cells or 3,500 HCT116 cells were seeded into 96-well SCREENSTAR microplates (Greiner) and treated with inhibitors in dose response, added from DMSO stocks. After 3 days, cells were fixed directly in the wells with 100% methanol (−20° C., 10 minutes). The fixed cells were washed with PBS and stained with primary antibodies against γ-tubulin and, for a subset of compounds, Cep192. Cells were then stained with Alexa-488 donkey anti-mouse and Alexa-647 goat anti-rabbit secondary antibodies. Cells were imaged using either a Model 500 LumaScope (Etaluma) or an EVOS FL (Advanced Microscopy Group/Life Technologies), and centriole depletion was determined by scoring the percentage of cells without visible γ-tubulin/Cep192 foci.

A further assay addresses T1, SRPK1 (Homo sapiens, UniProt Q96SB4).
T1 construct: Reaction Biology (Malvern, Pa.), contract assay
The assay can be described thus: Radiometric kinase assay, off-target SRPK1. The assay is classed as biochemical. The following applies: off-target from DiscoveRx kinome profiling. As to the method:
as §2

Assay [3] concerns wild-type Plk4-GFP NIH/3T3 cells. Description: Centriole overduplication assay, NIH/3T3 overexpressing wild-type Plk4-GFP. The assay is classed as cell-based, mouse. The method, then: For generation of Plk4-GFP inducible NIH/3T3 cells, a mouse Plk4 cDNA C-terminally fused to eGFP was cloned into the lentiviral vector pLVX-TRE3G (Clontech). The G95L point mutation was generated by Quikchange mutagenesis (Agilent Technologies). Plasmids were transfected into HEK-293T cells using the Lenti-X HTX packaging system (Clontech), following manufacturer's instructions. 48 hours after transfection, virus-containing culture supernatant was harvested and added to the growth medium of Tet-On 3G NIH/3T3 cells (Clontech)+8 μg/ml polybrene (EMD Millipore).
Centriole overduplication assay. Tet-On 3G NIH/3T3 cells (Clontech) stably transduced with GFP, Plk4-GFP or Plk4(G95L)-GFP were seeded onto coverslips in a 12-well plate at 30,000 cells/well. Transgene expression was induced with 1 μg/ml doxycycline. […] Treated cells were incubated for 40 hours, and then washed with PBS and fixed in 100% methanol (−20° C., 5 minutes). Fixed samples were stained for γ-tubulin and Cep192, and mounted onto slides. Image acquisition and deconvolution were performed on the DeltaVision system equipped with a 100×1.3 NA U-PlanApo objective. Subsequent image processing was performed in ImageJ.

Assay [4] concerns HeLa cells. Description: Proliferation assay, HeLa. The class given is cell-based, human. As to the method:
Proliferation assays. For each condition, cells were seeded in triplicate into 6-well plates at 50,000 cells/well. Compounds were added at the indicated concentrations. At 24-hour intervals, 3 wells were harvested per condition. Cell counting was performed using a TC10 automated cell counter (Bio-Rad). Results are from 3 independent experiments.

Assay [5] relates to NIH/3T3 cells. The assay can be described thus: Cilia formation assay in NIH/3T3 cells. The assay is classed as cell-based, mouse. The following applies: serum-starved NIH/3T3. As to the method: Cilia formation assay in NIH/3T3 cells. […] Cells were seeded onto coverslips and starved for 40 hours by replacing their media with DMEM+0.5% defined bovine serum. Cells were then washed with PBS, fixed with 100% methanol (−20° C., 5 minutes), stained with antibodies against γ-tubulin and IFT-88, and mounted onto slides. Image acquisition and deconvolution were performed on the DeltaVision system, as above. Subsequent image processing was performed in ImageJ.

In another assay the test system is RPE1 Plk4 G95L cells. The assay can be described thus: Centrosome number and passaging assay, RPE1 Plk4 G95L knock-in. The class given is cell-based, human. The following applies: RPE1, both PLK4 alleles G95L. From the text: For generation of RPE1 cells with a Plk4(G95L) knock-in, we targeted the intronic region between exons 4 and 5 of the Plk4 locus with a gRNA sequence ([…], SEQ ID NO: 1) cloned into pX458 (a gift from Feng Zhang; Addgene plasmid #48138; 44). A repair template was cloned to introduce the G95L point mutation, as well as a neomycin resistance cassette within the intronic region (see FIG. 15). RPE1 cells were transfected with the Cas9/gRNA plasmid, then transduced with adeno-associated virus coding for the repair template using previously described methods (45). Cells were selected in 96-well plates for 2 weeks using 0.5 mg/ml Geneticin (Life Technologies). Positive clones homozygous for the G95L knock-in were identified by PCR and sequencing of genomic DNA.
Passaging assays. Cells were seeded into 10 cm tissue culture plates at 150,000 (HeLa, NIH/3T3 and RPE1) or 200,000 cells/plate (primary fibroblasts). Compounds were added at the indicated concentrations. At 4-day intervals, cells were harvested, counted using a TC10 cell counter, and re-seeded into new plates at the densities above. Results are from 2 independent experiments.

We go through one compound from patent US10752612B2, “PLK4 inhibitors” (LUDWIG INSTITUTE FOR CANCER RESEARCH LTD, priority 2015, dated 2020).

Usually Ki stands for a dissociation constant, usually derived from enzyme kinetics or from competition with a known ligand.

Bounds are passed on as bounds.

Chain of ROS/ROS1 (P08922 28-2347): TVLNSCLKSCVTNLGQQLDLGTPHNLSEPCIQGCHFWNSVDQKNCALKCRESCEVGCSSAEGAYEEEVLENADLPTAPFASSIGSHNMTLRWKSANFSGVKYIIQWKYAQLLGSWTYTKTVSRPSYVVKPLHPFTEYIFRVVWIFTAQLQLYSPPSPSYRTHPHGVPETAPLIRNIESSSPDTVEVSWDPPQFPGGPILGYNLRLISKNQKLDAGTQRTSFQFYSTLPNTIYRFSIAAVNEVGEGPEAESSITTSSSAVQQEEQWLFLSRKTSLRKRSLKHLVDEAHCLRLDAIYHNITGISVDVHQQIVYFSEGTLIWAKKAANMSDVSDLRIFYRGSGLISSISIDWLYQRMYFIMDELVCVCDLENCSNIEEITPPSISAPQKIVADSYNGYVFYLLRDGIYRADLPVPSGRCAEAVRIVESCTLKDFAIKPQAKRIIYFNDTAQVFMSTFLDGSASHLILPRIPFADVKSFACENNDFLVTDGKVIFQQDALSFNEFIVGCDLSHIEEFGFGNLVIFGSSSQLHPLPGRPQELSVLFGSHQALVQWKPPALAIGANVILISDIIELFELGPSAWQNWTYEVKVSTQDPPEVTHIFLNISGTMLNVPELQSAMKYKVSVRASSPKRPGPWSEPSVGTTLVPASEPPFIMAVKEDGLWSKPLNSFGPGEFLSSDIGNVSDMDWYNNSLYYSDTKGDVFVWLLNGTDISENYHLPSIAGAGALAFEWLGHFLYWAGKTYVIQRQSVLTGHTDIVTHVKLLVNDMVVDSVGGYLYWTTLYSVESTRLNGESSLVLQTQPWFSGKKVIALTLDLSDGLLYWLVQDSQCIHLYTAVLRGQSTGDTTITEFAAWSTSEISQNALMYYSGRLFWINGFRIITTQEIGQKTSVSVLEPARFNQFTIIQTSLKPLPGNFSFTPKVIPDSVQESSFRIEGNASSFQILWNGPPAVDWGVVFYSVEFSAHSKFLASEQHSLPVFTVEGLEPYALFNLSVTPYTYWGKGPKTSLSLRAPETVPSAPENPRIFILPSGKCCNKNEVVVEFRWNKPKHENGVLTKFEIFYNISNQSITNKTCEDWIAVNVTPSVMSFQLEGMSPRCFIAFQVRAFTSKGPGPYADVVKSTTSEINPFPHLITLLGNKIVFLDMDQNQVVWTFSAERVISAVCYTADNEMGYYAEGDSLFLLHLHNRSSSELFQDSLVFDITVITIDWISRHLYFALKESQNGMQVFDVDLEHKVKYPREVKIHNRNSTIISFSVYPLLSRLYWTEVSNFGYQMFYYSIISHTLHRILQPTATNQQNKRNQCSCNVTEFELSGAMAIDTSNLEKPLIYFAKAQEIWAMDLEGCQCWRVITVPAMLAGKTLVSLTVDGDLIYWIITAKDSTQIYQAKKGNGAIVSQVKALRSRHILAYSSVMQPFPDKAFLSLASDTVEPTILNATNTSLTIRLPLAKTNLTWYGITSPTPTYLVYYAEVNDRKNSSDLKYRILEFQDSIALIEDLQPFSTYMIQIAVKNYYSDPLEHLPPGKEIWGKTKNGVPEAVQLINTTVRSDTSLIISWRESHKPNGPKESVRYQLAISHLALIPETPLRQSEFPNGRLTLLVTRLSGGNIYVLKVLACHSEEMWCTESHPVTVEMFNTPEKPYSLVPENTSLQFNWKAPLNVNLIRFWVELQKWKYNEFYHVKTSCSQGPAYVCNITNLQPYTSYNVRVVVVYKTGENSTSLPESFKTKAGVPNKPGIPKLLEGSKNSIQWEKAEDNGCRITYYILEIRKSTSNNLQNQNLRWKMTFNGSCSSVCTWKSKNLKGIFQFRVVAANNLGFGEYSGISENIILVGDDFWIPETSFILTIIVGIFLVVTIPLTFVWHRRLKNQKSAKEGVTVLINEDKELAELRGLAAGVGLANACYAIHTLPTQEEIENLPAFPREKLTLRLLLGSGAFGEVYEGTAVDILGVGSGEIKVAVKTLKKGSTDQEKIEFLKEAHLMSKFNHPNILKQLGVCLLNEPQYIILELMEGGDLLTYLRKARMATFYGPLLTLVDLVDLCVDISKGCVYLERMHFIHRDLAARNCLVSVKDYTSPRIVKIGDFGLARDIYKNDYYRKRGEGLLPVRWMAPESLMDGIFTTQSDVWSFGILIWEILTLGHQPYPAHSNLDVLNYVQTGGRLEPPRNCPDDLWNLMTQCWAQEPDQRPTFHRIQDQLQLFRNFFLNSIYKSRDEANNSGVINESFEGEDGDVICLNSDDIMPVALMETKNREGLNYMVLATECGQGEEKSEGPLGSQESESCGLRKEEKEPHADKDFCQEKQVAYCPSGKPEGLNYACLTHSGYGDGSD
T1 sequence (Q96SB4 whole entry): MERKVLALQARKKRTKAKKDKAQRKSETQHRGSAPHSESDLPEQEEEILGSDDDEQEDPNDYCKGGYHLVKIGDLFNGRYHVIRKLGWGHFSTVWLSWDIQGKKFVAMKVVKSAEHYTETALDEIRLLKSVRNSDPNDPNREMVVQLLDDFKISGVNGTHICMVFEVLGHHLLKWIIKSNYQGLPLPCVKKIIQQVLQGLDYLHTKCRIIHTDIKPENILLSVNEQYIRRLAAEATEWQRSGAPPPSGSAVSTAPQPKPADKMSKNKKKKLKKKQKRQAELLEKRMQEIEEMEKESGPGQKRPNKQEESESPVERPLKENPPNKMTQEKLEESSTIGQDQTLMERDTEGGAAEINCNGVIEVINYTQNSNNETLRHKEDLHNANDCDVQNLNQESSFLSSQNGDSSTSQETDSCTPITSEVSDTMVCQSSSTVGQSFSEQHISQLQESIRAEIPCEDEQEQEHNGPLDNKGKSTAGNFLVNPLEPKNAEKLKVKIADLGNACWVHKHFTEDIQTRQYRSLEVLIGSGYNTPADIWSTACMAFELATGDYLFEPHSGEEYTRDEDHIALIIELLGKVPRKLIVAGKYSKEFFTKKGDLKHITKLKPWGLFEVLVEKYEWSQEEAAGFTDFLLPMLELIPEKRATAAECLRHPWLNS

As to `COc1c(Nc2cc(C)[nH]n2)nc(Sc2ccc(S(=O)(=O)Cc3cccc([N+](=O)[O-])c3F)cc2F)nc1N1CCOCC1` [Centrinone, 2-((2-fluoro-4-((2-fluoro-3-nitrobenzyl)sulfonyl)phenyl)thio)-5-methoxy-N-(5-methyl-1H-pyrazol-3-yl)-6-morpholinopyrimidin-4-amine], the “cells undergoing persistent mitotic arrest” value in the assay on HeLa cells [1] is 24%. The “increase in mitotic duration” value in the assay with HeLa cells [1] was about 1 h; with NIH/3T3 cells [2], about 20 min. Further, the Ki is 2.77 nM at ROS/ROS1 and over 150 nM at SRPK1. In the assay with centrosomes in cells, this compound registered a centrosome depletion at of 100 nM. The centriole amplification result in assay [3] is listed as “blocked centriole amplification”. In addition, the proliferation versus controls entry with HeLa cells [4] (HeLa, first two days after addition) is recorded as “identical to controls”. In addition, the “cell death per generation explaining reduced proliferation rate” value with HeLa cells [4] (centrosome-less HeLa, theoretical curves versus measurements) is given as 25%. The primary cilia entry with NIH/3T3 cells [5] is “prevents assembly of primary cilia”. Further, the “centrosome loss and proliferation” value in the assay with RPE1 Plk4 G95L cells is reported as “did not lead to centrosome loss or proliferation arrest”.
